Values of other authors, collected in patent publication US20240397942A1, “METHOD FOR PRODUCING REPELLENT OR ATTRACTANT FOR ORGANISMS, REPELLENT OR ATTRACTANT FOR ORGANISMS, AND METHOD FOR REPELLING OR ATTRACTING ORGANISMS” (Sony Group Corporation, priority 2021, published 2024).

How the values were obtained:
Details in all cases: in vivo
Mexican bean beetles = tested on: Mexican bean beetles
flour beetles = tested on: flour beetles
[1] = tested on: whiteflies (infection vector of tomato yellowing gangrene virus)
[2] = tested on: house dust mites (indoor mites)
peach-potato aphids = tested on: peach-potato aphids
fruit flies = tested on: fruit flies
Asian tiger mosquitoes = tested on: Asian tiger mosquitoes
giant assassin bugs = tested on: giant assassin bugs
sirex woodwasps = tested on: sirex woodwasps
[3] = tested on: plant hoppers (rice pests)
stink bugs = tested on: stink bugs
spider mites = tested on: spider mites
organisms = tested on: organisms
malaria mosquitoes = tested on: malaria mosquitoes
green tea leafhoppers = tested on: green tea leafhoppers

For `C=CCCCCCCCCCCCC` [1-tetradecene], the “repellent effect on Mexican bean beetles” value (Mexican bean beetles) is given as “repellent effect” and the “repellent effect on flour beetles” value (flour beetles) is given as “repellent effect”.
For `CCCCC(CC)CO` (stereo not shown) [2-ethyl-1-hexanol], the “attractant effect on whiteflies” value [1] is listed as “attractant effect”.
In the case of `CCCCCCCCCC=O` [Example 1-decanal, 1-decanal], the “attractant effect on house dust mites (indoor mites)” value [2] is listed as “attractant effect”.
In the case of `CCCCCC=O` [Example 1-hexanal, 1-hexanal], the “attractant effect on peach-potato aphids” value (peach-potato aphids) is given as “attractant effect”.
For `CCCCCCCC=O` [Example 1-octanal, 1-octanal], the “attractant effect on house dust mites (indoor mites)” value [2] is listed as “attractant effect”.
For `CC=O` [acetaldehyde], the “attractive (attractant) effect on fruit flies” value (fruit flies) is listed as “attractant effect”.
For `CC(=O)O` [acetic acid], the “attractant effect on Asian tiger mosquitoes” value (Asian tiger mosquitoes) is given as “attractant effect”.
In the case of `CC(=O)c1ccccc1` [acetophenone], the “repellent effect on giant assassin bugs” value (giant assassin bugs) is listed as “repellent effect”, the “repellent effect on sirex woodwasps” value (sirex woodwasps) is listed as “repellent effect” and the “attractive effect on plant hoppers (rice pests)” value [3] is listed as “attractive effect”. For the same compound, the “attractive effect on stink bugs” value (stink bugs) was “attractive effect”.
In the case of `CC(=O)CC(C)=O` [acetylacetone], the “repellent effect on sirex woodwasps” value (sirex woodwasps) is listed as “repellent effect”.
For `O=Cc1ccccc1` [benzaldehyde], the “attractive (attractant) effect on fruit flies” value (fruit flies) is given as “attractive effect”.
For `CCCCCCCCCCCCCCCC` [hexadecane], the “repellent effect on spider mites” value (spider mites) is given as “repellent effect”.
In the case of `C=Cc1ccccc1` [styrene], the “repellent or attractant effect on organisms” value (organisms) is given as “no repellent or attractant effect”.
For `CCCCCCCCCCCCCC` [tetradodecane], the “repellent effect on malaria mosquitoes” value (malaria mosquitoes) is listed as “repellent effect”.
For hexadecene, the “repellent effect on green tea leafhoppers” value (green tea leafhoppers) is given as “repellent effect”.
In the case of xylene, the “repellent effect on whiteflies” value [1] is listed as “repellent effect”.
